The target of one series is T1, alpha1B adrenoceptor (Homo sapiens, UniProt P35368).
T1 construct: expressed in transfected cells; host or cells: CHO-K1
T1 sequence (P35368 1-520): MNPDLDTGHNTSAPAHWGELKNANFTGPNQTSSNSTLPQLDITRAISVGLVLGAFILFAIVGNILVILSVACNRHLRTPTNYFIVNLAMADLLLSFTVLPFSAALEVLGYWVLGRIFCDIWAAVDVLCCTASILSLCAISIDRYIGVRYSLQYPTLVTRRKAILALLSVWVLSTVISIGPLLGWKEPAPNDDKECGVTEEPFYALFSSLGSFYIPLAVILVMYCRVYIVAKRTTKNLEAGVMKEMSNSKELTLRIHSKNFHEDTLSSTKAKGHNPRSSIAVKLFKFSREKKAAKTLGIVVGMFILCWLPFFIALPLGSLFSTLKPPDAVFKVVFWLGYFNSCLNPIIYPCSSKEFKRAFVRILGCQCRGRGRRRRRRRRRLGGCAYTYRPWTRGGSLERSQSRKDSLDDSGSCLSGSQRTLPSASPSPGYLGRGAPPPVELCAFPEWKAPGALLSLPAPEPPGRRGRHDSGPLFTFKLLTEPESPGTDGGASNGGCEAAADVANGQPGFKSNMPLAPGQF
Put plainly: [3H]prazosin binding (alpha1-adrenoceptor) assay, membranes of transfected CHO-K1 cells. The conditions noted are these: transfected CHO-K1 cell membranes, read-out: pKi alpha 1B (converted). As for the experimental part:
(§1) Example [^3H]prazosin Binding (Alpha1-Adrenoceptor) Assay
(§2) Alpha1A, alpha1B, and alpha1D adrenoceptor transfected CHO-K1 cells, prepared using the methods described by Chang et al., FEBS Lett. 1998, 422:279–283, were grown to confluence in T-162 tissue culture flasks in Ham's F-12 culture medium supplemented with 10% fetal bovine serum, geneticin (150 μg/mL) and streptomycin/penicillin (30 μg/mL/30 μg/mL) at 37° C. in 7% CO2. Cells were harvested by incubating with phosphate-buffered saline (PBS) containing 30 μM EDTA for 5–10 min at 37° C. Cells were pelleted by centrifuging at 500×g for 5 min, and the pelleted cells were homogenized (Polytron homogenizer) in 10 vols (w/v) of 50 mM Tris, 1 mM EDTA, (homogenisation buffer, pH 7.4 at 4° C.). The homogenate was centrifuged at 45,000×g for 20 min. The pellet was resuspended in the homogenizing buffer and rehomogenized. The resulting homogenate was centrifuged at 45,000×g for 20 min. The pellet was resuspended in 50 mM Tris buffer (pH 7.4 at 4° C.), aliquoted, frozen, and stored at −80° C. for further use.
(§3) The membranes were thawed at room temperature and diluted in assay buffer (50 mM Tris buffer at […]) at 37° C. and homogenized using the Polytron tissue disrupter. The membranes were incubated with the radioligand ([^3H]prazosin, NEN, 0.1–0.5 nM) and test compound at 37° C. for 30 min. The membranes were then filtered over polyethyleneimine-treated GF/B unifilter plates using a Packard Filtermate Harvester and washed with ice-cold 50 mM Tris-HCl, 1 mM EDTA buffer (3×3 sec. washes). Scintillation cocktail was added to the filter plates and bound radioligand determined by liquid scintillation spectrophotometry.
(§4) For each experiment, total binding (in the absence of any test or reference compounds) and non-specific binding (10 μM phentolamine) were determined. For each sample tested, the concentration producing 50% inhibition of binding (IC50) and Hill Slope (nH) was determined using iterative non-linear curve fitting techniques with Kaleidagraph (Synergy Software) or other appropriate software. If the radioligand KD was known, the inhibition dissociation constant (KI) of each ligand was determined according to the method of Cheng and Prusoff (Cheng, Y-C. and Prusoff, W. H., Biochem. Pharmacol., 1973, 22, 3099–3108).

For the next series, the target named is T2, Alpha1A adrenoceptor (Homo sapiens, UniProt P35348).
T2 construct: expressed in transfected cells; host or cells: CHO-K1
T2 sequence (P35348 1-466): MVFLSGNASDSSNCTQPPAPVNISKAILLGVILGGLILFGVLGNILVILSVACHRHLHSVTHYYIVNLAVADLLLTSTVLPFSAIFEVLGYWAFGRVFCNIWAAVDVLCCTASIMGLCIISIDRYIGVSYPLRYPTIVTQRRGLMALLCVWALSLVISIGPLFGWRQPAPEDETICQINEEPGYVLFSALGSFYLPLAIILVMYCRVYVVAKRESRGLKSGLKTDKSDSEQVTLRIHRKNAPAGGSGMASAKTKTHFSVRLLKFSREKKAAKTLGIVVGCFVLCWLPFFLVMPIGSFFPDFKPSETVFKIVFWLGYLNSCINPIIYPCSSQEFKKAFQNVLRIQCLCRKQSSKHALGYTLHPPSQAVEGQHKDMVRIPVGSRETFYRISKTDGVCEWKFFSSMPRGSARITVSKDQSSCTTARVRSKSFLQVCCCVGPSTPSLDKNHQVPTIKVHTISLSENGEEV
Described as above. To be noted: transfected CHO-K1 cell membranes, read-out: pKi alpha 1A (converted). As to the method:
as §1, §2, §3, §4

In another series the target is T3, alpha1D adrenoceptor (Homo sapiens, UniProt P25100).
T3 construct: expressed in transfected cells; host or cells: CHO-K1
T3 sequence (P25100 1-572): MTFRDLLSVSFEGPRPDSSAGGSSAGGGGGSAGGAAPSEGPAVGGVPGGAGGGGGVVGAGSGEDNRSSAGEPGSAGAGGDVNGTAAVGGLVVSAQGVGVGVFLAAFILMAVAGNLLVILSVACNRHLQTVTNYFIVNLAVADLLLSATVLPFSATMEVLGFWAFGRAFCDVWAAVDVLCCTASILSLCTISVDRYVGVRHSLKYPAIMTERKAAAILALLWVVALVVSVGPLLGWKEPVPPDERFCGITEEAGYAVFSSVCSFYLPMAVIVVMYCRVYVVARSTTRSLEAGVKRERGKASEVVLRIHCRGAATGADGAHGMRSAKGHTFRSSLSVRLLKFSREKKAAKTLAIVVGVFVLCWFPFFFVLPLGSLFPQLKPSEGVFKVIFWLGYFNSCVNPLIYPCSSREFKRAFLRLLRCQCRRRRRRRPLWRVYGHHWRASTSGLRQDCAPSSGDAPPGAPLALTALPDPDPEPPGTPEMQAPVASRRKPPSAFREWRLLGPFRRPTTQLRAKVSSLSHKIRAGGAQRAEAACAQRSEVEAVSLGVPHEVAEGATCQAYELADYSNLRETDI
Described as above. The conditions noted are these: transfected CHO-K1 cell membranes, read-out: pKi alpha 1D (converted). As for the experimental part: as §1, §2, §3, §4

In general, melting point refers to the temperature of the solid-liquid transition.

As to `COc1cc2[nH]c(N(C)Cc3ccc4c(c3)CN(C)C4)nc(=O)c2c(C)c1OC` [6,7-Dimethoxy-5-methyl-2-[methyl-(2-methyl-2,3-dihydro-1H-isoindol-5-ylmethyl)-amino]-1H-quinazolin-4-one], the Ki on alpha1B adrenoceptor was 14.8 nM; at Alpha1A adrenoceptor, 3.24 nM; at alpha1D adrenoceptor it was 2630 nM.

Regarding `COc1cc2[nH]c(N(C)Cc3ccc(OCC(O)CO)cc3)nc(=O)c2c(C)c1OC` (centres unmarked) [2-{[4-(2,3-dihydroxy-propoxy)-benzyl]-methyl-amino}-6,7-dimethoxy-5-methyl-1H-quinazolin-4-one], the Ki was 6.92 nM at alpha1B adrenoceptor, 7.08 nM at Alpha1A adrenoceptor and 794 nM on alpha1D adrenoceptor.

Consider `COc1cc2[nH]c(N(C)Cc3cccc(C(C)N(C)C)c3)nc(=O)c2c(OC)c1OC` (centres unmarked) [2-{[3-(1-Dimethylamino-ethyl)-benzyl]-methyl-amino}-5,6,7-trimethoxy-1H-quinazolin-4-one], for which the Ki was 3.72 nM at alpha1B adrenoceptor, 1.55 nM at Alpha1A adrenoceptor and 141 nM at alpha1D adrenoceptor.

For `CCN(C)Cc1ccc(CN(C)c2nc(=O)c3c(OC)c(OC)c(OC)cc3[nH]2)cc1` [2-({4-[(ethyl-methyl-amino)-methyl]-benzyl}-methyl-amino)-5,6,7-trimethoxy-1H-quinazolin-4-one], the Ki on alpha1B adrenoceptor is 3.09 nM; at Alpha1A adrenoceptor, 3.16 nM; on alpha1D adrenoceptor, 550 nM.

As for `COc1cc2[nH]c(N(C)Cc3cccc(CN4CCC(OC)C4)c3)nc(=O)c2c(OC)c1OC` (centres unmarked) [5,6,7-trimethoxy-2-{[3-(3-methoxy-pyrrolidin-1-ylmethyl)-benzyl]-methyl-amino}-1H-quinazolin-4-one], the Ki at alpha1B adrenoceptor was 7.41 nM; at Alpha1A adrenoceptor, 5.37 nM; at alpha1D adrenoceptor, 5370 nM.

Consider `COc1cc2[nH]c(NCc3cccc(N=C(C)N(C)C)c3)nc(=O)c2c(C)c1OC`, for which the figures for the Ki at alpha1B adrenoceptor, at Alpha1A adrenoceptor and on alpha1D adrenoceptor were 0.891 nM, 7.41 nM and 69.2 nM, respectively.

In the case of `COc1cc2[nH]c(N(C)Cc3cccc(C4=NCCO4)c3)nc(=O)c2c(OC)c1OC` [2-{[3-(4,5-dihydro-oxazol-2-yl)-benzyl]-methyl-amino}-5,6,7-trimethoxy-1H-quinazolin-4-one], the values for the Ki at alpha1B adrenoceptor, on Alpha1A adrenoceptor and at alpha1D adrenoceptor were 14.8 nM, 813 nM and 2630 nM, respectively.

The molecule `COc1cc2[nH]c(N(C)Cc3ccc4c(c3)CN(C)C4)nc(=O)c2c(OC)c1OC` [Example 45, 5,6,7-Trimethoxy-2-[methyl-(2-methyl-2,3-dihydro-1H-isoindol-5-ylmethyl)-amino]-1H-quinazolin-4-one] showed a melting point of 165.5 to 166.5 °C.

Molecule `CCCN(C)Cc1cccc(CN(C)c2nc(=O)c3c(C)c(OC)c(OC)cc3[nH]2)c1` [Example 68, 6,7-Dimethoxy-5-methyl-2-(methyl-{3-[(methyl-propyl-amino)-methyl]-benzyl}-amino)-1H-quinazolin-4-one] registered a melting point of 128.1 to 129.1 °C.

`COc1cc2[nH]c(N(C)Cc3cccc(OCS(C)(=O)=O)c3)nc(=O)c2c(OC)c1OC` [Example F-6, 2-[(3-Methanesulfonylmethoxy-benzyl)-methyl-amino]-5,6,7-trimethoxy-1H-quinazolin-4-one] gave a melting point of 183.9 to 185.4 °C.

Molecule `CNC(C)c1cccc(CN(C)c2nc(=O)c3c(OC)c(OC)c(OC)cc3[nH]2)c1` (centres unmarked) [Example 63, 5,6,7-Trimethoxy-2-{methyl-[3-(1-methylamino-ethyl)-benzyl]-amino}-1H-quinazolin-4-one] had a melting point of 131.8 to 134.4 °C.

In turn, `CCN(C)CCOc1ccc(CN(C)c2nc(=O)c3c(C)c(OC)c(OC)cc3[nH]2)cc1OC` [Example 25, 2-({4-[2-(Ethyl-methyl-amino)-ethoxy]-3-methoxy-benzyl}-methyl-amino)-6,7-dimethoxy-5-methyl-1H-quinazolin-4-one] displayed a melting point of 158.1 to 159.2 °C.

With `COCCN(C)C(C)c1cccc(CN(C)c2nc(=O)c3c(C)c(OC)c(OC)cc3[nH]2)c1` (centres unmarked) [Example 54, 6,7-Dimedthoxy-2-[(3-{1-[(2-methoxy-ethyl)-methyl-amino]-ethyl}-benzyl)-methyl-amino]-5-methyl-1H-quinazolin-4-one], the melting point lay within 114.5 to 116.9 °C.

The molecule `COc1cc2[nH]c(N(C)Cc3cccc(N4CCC(C)C4=O)c3)nc(=O)c2c(C)c1OC` (centres unmarked) [Example 256, 6,7-Dimethoxy-5-methyl-2-{methyl-[3-(3-methyl-2-oxo-pyrrolidin-1-yl)-benzyl]-amino}-1H-quinazolin-4-one] showed a melting point of 210.8 to 211.6 °C.

Consider `COc1cc2nc(N(C)Cc3cccc(C4CCN(C)CC4)c3)[nH]c(=O)c2c(C)c1OC` [Example H-3, 6,7-Dimethoxy-5-methyl-2-{methyl-[3-(1-methyl-piperidin-4-yl)-benzyl]-amino}-1H-quinazolin-4-one], for which the melting point lay within 155.7 to 158 °C.

Source of the values: US7244738B2, “Arylamine-substituted quinazolinone compounds useful as alpha 1A/B adrenergic receptor antagonists” (Roche Palo Alto LLC, priority 2003, dated 2007).
